Experimental findings from patent US12065416B2, “cGAS antagonist compounds” (IMMUNESENSOR THERAPEUTICS, INC., priority 2016, dated 2024) are described below.

For this test, the target named is T1, recombinant cGAS (aa147-522) (Homo sapiens, UniProt Q8N884).
T1 construct: recombinant cGAS (aa147-522); His6-SUMO (N, cleaved yes); made in house; host or cells: E. coli BL21/pLys
In words: In vitro assay for inhibition of cGAS activity (ATP consumption, Kinase Glo). Type of test: biochemical. The following applies: 37° C. 20 minutes, read-out: Activity (Inhibition of cGAS enzyme activity in vitro, IC50). Here is the method:
cDNA encoding full-length or amino acids 147-520 of human cGAS is inserted into a modified pET28a vector containing an in-frame His6-SUMO tag. The E. coli strain BL21/pLys harboring the plasmid is induced with 0.5 mM IPTG at 18° C. overnight. His6-SUMO tag was removed by a SUMO proease following purification of the HiS-SUMO-cGAS as described previously (Sun et al, 2013, Science 339, 786).
A40 μL mixture containing 1.5 ng/μL of recombinant cGAS (aa147-522) and serial dilutions of a test compound or DMSO was added to a 96-well plate and incubated at 37° C. for 20 minutes. At the end of reaction, 20 μL of Kinase Glo (Promega) was added and chemiluminescence measured with a luminometer. Inhibitory effect of a compound is evaluated by plotting percentage of ATP consumption against logarithm of compound concentrations. IC50 value was calculated using Graphpad (Sigma).

T1 sequence (Q8N884 147-522): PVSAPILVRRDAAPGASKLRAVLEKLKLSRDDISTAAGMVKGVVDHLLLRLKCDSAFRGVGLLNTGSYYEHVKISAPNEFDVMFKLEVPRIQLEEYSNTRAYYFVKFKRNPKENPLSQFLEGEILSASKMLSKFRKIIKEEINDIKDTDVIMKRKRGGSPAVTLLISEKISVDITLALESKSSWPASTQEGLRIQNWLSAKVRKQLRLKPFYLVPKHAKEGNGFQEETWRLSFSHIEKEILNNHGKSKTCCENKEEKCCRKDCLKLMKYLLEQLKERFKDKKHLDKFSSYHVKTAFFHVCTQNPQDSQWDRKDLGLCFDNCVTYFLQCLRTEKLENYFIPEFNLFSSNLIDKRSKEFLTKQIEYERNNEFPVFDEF

What is called IC50 is the concentration that inhibits the measured activity by half. On to `O=C1NC(=O)/C(=C/c2ccncc2)S1` [Ex1], for which the IC50 was at most 0.5 µM. Regarding `O=C1NC(=O)/C(=C/c2ccncc2)S1` [Ex2], the IC50 is at least 10 µM.

Turning to `Cc1cnccc1/C=C1\SC(=O)NC1=O` [Ex3], the IC50 is at most 0.5 µM. `O=C1NC(=O)/C(=C/c2ccncc2C(F)(F)F)S1` [Ex4]: the half-maximal inhibitory concentration (IC50) is at least 10 µM.

As to `O=C1NC(=O)/C(=C2\CCCc3cnccc32)S1` [Ex5], the 50% inhibitory concentration (IC50) is at most 0.5 µM. For `O=C1NC(=O)/C(=C/c2c[nH]cn2)S1` [Ex6], the concentration for half-maximal inhibition (IC50) was at least 10 µM. For `O=C1NC(=O)/C(=C/c2cnccn2)S1` [Ex7], the IC50 is at least 10 µM. The same measure for `O=C1NC(=O)/C(=C/c2cncnc2)S1` [Ex8]: at least 10 µM; for `N=C1NC(=O)/C(=C/c2ccncc2)S1` [Ex9]: at least 10 µM.

With `CN1C(=O)S/C(=C\c2cc(O)c(O)cc2F)C1=O` [Ex10], the IC50 is at least 10 µM. As for `C/C(=C1/SC(=O)NC1=O)c1ccncc1` [Ex12], the half-maximal inhibitory concentration (IC50) is at most 0.5 µM. Consider `COc1cc2c(cc1O)CC/C2=C1/SC(=O)N(C)C1=O` [Ex13], for which the concentration for half-maximal inhibition (IC50) is at least 10 µM. For the compound `O=C1NC(=O)/C(=C/c2ccncc2)N1` [Ex14], the half-inhibitory concentration (IC50) was in the range of 0.5 to 10 µM. As for `O=C1NC(=O)/C(=C/c2ccnnc2)N1` [Ex15], the IC50 was at least 10 µM. The result for `COc1cc(/C=c2\sc3ncc(C)n3c2=O)c(Br)cc1O` [Ex17] reads at least 10 µM; that for `C#Cc1cc(O)c(OC)cc1/C=C1\SC(=O)N(C)C1=O` [Ex19], at least 10 µM; that for `COc1cc(/C(Br)=C2\SC(=O)N(C)C2=O)c(Br)cc1O` [Ex20], at least 10 µM.

As to `COc1cc(/C=C2\SC(=O)N(C)C2=O)c(Br)cc1NS(C)(=O)=O` [Ex22], the IC50 is at least 10 µM. Regarding `COc1cc(/C=C2\SC(=O)N(C)C2=O)c(Br)cc1NS(=O)(=O)c1ccccc1` [Ex23], the half-maximal inhibitory concentration (IC50) was at least 10 µM.

As for `COc1cc(/C=C2\SC(=O)N(C)C2=O)c(Br)cc1NS(=O)(=O)c1ccc(C)cc1` [Ex24], the 50% inhibitory concentration (IC50) is at least 10 µM. In the case of `CN1C(=O)S/C(=C\c2cc3oc(=O)[nH]c3cc2Br)C1=O` [Ex25], the IC50 is 0.5 to 10 µM. On to `O=C1/C(=C/c2cc3oc(=O)[nH]c3cc2Br)Sc2ncccc21` [Ex26], for which the half-maximal inhibitory concentration (IC50) lay within 0.5 to 10 µM. In the case of `CN1C(=O)S/C(=C\c2cc(Oc3ccccc3)c(O)cc2Br)C1=O` [Ex27], the IC50 was in the range of 0.5 to 10 µM.

As to `COc1cc(/C=C2\SC(=O)N(C)C2=O)c(F)cc1O` [Ex29], the 50% inhibitory concentration (IC50) is at least 10 µM. The same measure for `COc1cc(/C=C2\SC(=O)N(C)C2=O)c(C(F)(F)F)cc1O` [Ex31]: 0.5 to 10 µM; for `COc1cc(/C=C2\SC(=O)N(C)C2=O)c(Br)c(Cl)c1O` [Ex34]: 0.5 to 10 µM; for `COc1cc(/C=C2\SC(=O)N(C)C2=O)c(Br)cc1-c1nn[nH]n1` [Ex35]: 0.5 to 10 µM.

As to `CN1C(=O)S/C(=C\c2cc3nn[nH]c3cc2Br)C1=O` [Ex36], the IC50 was at least 10 µM. Consider `COc1cc(/C=C/C=C2\SC(=O)N(C)C2=O)c(Br)cc1O` [Ex37], for which the concentration for half-maximal inhibition (IC50) lay within 0.5 to 10 µM. For the compound `COc1cc(/C=c2\sc3n(c2=O)CCN=3)c(Br)cc1O` [Ex40], the 50% inhibitory concentration (IC50) was 0.5 to 10 µM. Turning to `COc1cc(/C=c2\sc3n(c2=O)CCN=3)c(Cl)cc1O` [Ex41], the 50% inhibitory concentration (IC50) was in the range of 0.5 to 10 µM. Take `COc1cc(/C=c2\sc3n(c2=O)CCCN=3)c(Br)cc1O` [Ex42]: the half-inhibitory concentration (IC50) lay in the range of 0.5 to 10 µM. Turning to `COc1cc(/C=c2\sc3n(c2=O)CCCN=3)c(Cl)cc1O` [Ex43], the IC50 lay in the range of 0.5 to 10 µM. The result for `COc1cc(/C=C2\Sc3ncccc3C2=O)c(Br)c(Cl)c1O` [Ex46] reads at most 0.5 µM. In the case of `COc1cc(/C=C2\Sc3ncccc3C2=O)c(Br)c(Br)c1O` [Ex47], the concentration for half-maximal inhibition (IC50) is 0.5 to 10 µM. For `COc1cc(/C=C2\Sc3ncc(F)cc3C2=O)c(Br)cc1O` [Ex48], the IC50 was at most 0.5 µM.

In the case of `COc1cc(/C=C2\Sc3cnccc3C2=O)c(Br)cc1O` [Ex49], the IC50 was at most 0.5 µM. For the compound `COc1cc(/C=C2\Sc3nccnc3C2=O)c(Br)cc1O` [Ex50], the IC50 was 0.5 to 10 µM. The same measure for `COc1cc(/C=C2\Sc3ncncc3C2=O)c(Br)cc1O` [Ex51]: 0.5 to 10 µM. For the compound `CN1C(=O)S/C(=C\c2ccc(O)cc2Br)C1=O` [Ex52], the 50% inhibitory concentration (IC50) was 0.5 to 10 µM. Consider `CN1C(=O)S/C(=C\c2cc(OCc3ccc(NC(=O)c4ccncc4)nc3)c(O)cc2Br)C1=O` [Ex54], for which the half-maximal inhibitory concentration (IC50) is at most 0.5 µM.

As to `CN1C(=O)S/C(=C\c2cc(OCc3ccc(NC(=O)c4cccnc4)nc3)c(O)cc2Br)C1=O` [Ex55], the IC50 was in the range of 0.5 to 10 µM. For `CN1C(=O)S/C(=C\c2cc(OCc3ccc(NC(=O)c4ccccn4)nc3)c(O)cc2Br)C1=O` [Ex56], the half-maximal inhibitory concentration (IC50) was in the range of 0.5 to 10 µM.

Turning to `CCc1cc(/C=C2\SC(=O)N(C)C2=O)c(Br)cc1O` [Ex58], the half-inhibitory concentration (IC50) fell in the range of 0.5 to 10 µM. For `CC(=O)c1cc(/C=C2\SC(=O)N(C)C2=O)c(Br)cc1O` [Ex59], the concentration for half-maximal inhibition (IC50) lay in the range of 0.5 to 10 µM. With `COc1cc(/C=C2\SC(=O)N(C)C2=O)c(Br)cc1NS(=O)(=O)C(F)(F)F` [Ex60], the IC50 is 0.5 to 10 µM. As for `CC(=O)Nc1ncc(S(=O)(=O)Nc2cc(Br)c(/C=C3\SC(=O)N(C)C3=O)cc2OCc2ccccc2)s1` [Ex62], the half-inhibitory concentration (IC50) fell in the range of 0.5 to 10 µM. Turning to `COc1cc(/C=C2\SC(=O)N(C)C2=O)c(C)cc1O` [Ex64], the IC50 is 0.5 to 10 µM. Turning to `CN1C(=O)S/C(=C\c2cc3cc[nH]c3cc2Br)C1=O` [Ex66], the IC50 is 0.5 to 10 µM. As for `CSc1cc(/C=C2\SC(=O)N(C)C2=O)c(Br)cc1O` [Ex69], the IC50 is 0.5 to 10 µM.

Consider `O=C1/C(=C/c2ccc(O)cc2Br)Sc2ncccc21` [Ex71], for which the half-maximal inhibitory concentration (IC50) was at most 0.5 µM. Regarding `O=C1/C(=C/c2cc(OCc3ccncc3)c(O)cc2Br)Sc2ncccc21` [Ex72], the half-inhibitory concentration (IC50) is at most 0.5 µM. On to `COc1cc(/C=C2\Sc3ncccc3C2=O)c(Br)cc1Oc1cnc(N)s1` [Ex74], for which the IC50 lay within 0.5 to 10 µM. The result for `COc1cc(/C=C2\Sc3ncccc3C2=O)c(C)cc1O` [Ex76] reads 0.5 to 10 µM; that for `COc1cc(/C=C2\Sc3ncccc3C2=O)c(I)cc1O` [Ex77], at most 0.5 µM; that for `O=C1/C(=C/c2cc3nn[nH]c3cc2Br)Sc2ncccc21` [Ex78], at most 0.5 µM. For `CCc1cc(/C=C2\Sc3ncccc3C2=O)c(Br)cc1O` [Ex79], the concentration for half-maximal inhibition (IC50) was at most 0.5 µM. In the case of `CN1C(=O)S/C(=C\c2cc(OCc3cnc(Nc4ccccn4)nc3)c(O)cc2Br)C1=O` [Ex83], the half-inhibitory concentration (IC50) lay in the range of 0.5 to 10 µM.

Turning to `CC(Oc1cc(/C=C2\SC(=O)N(C)C2=O)c(Br)cc1O)c1cnc(N)nc1` (stereo not shown) [Ex84], the IC50 is at most 0.5 µM.

Consider `CC(C)COc1cc(/C=C2\SC(=O)N(C)C2=O)c(Br)cc1O` [Ex85], for which the half-inhibitory concentration (IC50) lay in the range of 0.5 to 10 µM. As to `CN1C(=O)S/C(=C\c2cc(OCc3ccccc3)c(O)cc2Br)C1=O` [Ex88], the IC50 fell in the range of 0.5 to 10 µM.

Consider `CN1C(=O)S/C(=C\c2cc(OCc3ccccn3)c(O)cc2Br)C1=O` [Ex89], for which the IC50 fell in the range of 0.5 to 10 µM. In the case of `CN1C(=O)S/C(=C\c2cc(OCc3ccn(Cc4ccccc4)c(=O)c3)c(O)cc2Br)C1=O` [Ex91], the IC50 fell in the range of 0.5 to 10 µM. Regarding `CN1C(=O)S/C(=C\c2cc(OCc3cnc(C4CC4)nc3)c(O)cc2Br)C1=O` [Ex94], the IC50 is 0.5 to 10 µM.

With `CN1C(=O)S/C(=C\c2cc(OCc3cnc(C4CCNCC4)nc3)c(O)cc2Br)C1=O` [Ex95], the IC50 lay in the range of 0.5 to 10 µM.

Take `CN1C(=O)S/C(=C\c2cc(OCc3cnc(-c4cccnc4)nc3)c(O)cc2Br)C1=O` [Ex96]: the half-inhibitory concentration (IC50) was 0.5 to 10 µM.

In the case of `CN1C(=O)S/C(=C\c2cc(OCc3cnc(-c4ccccn4)nc3)c(O)cc2Br)C1=O` [Ex97], the 50% inhibitory concentration (IC50) fell in the range of 0.5 to 10 µM.
